In DBAASP:
Converted amounts (≈) assume the structure as drawn.

Assays:
Test in all cases: ≥ marks a high value that may be exact or a test limit, other limits are often not marked, values filed in µg/mL are converted to µM
[1] = test system: Escherichia coli ATCC 25922
[2] = test system: Salmonella enterica serovar Typhimurium
[3] = test system: Staphylococcus aureus ATCC 25923
[4] = test system: Pseudomonas aeruginosa PAO1
[5] = test system: Erwinia amylovora PMV 6076
[6] = test system: Xanthomonas campestris pv. Vesicatoria 2133-2
[7] = test system: Pseudomonas syringae pv. syringae EPS 94
[8] = test system: Escherichia coli K12 MG1655
[9] = test system: Pseudomonas aeruginosa ATCC 27853
[10] = test system: Staphylococcus aureus ATCC 33591
[11] = test system: Staphylococcus epidermidis ATCC 35984
[12] = test system: Candida albicans CGMCC 2.2086
[13] = test system: Salmonella enterica subsp. enterica serovar Pullorum ATCC 7913
[14] = test system: Salmonella enterica subsp. enterica serovar Typhimurium C77-31
[15] = test system: Staphylococcus aureus ATCC 43300
Escherichia coli K99 = test system: Escherichia coli K99
[16] = test system: Candida tropicalis CGMCC 2.1975
Escherichia coli 078 = test system: Escherichia coli 078
[17] = test system: Salmonella enterica subsp. enterica serovar Typhimurium ATCC 14028
[18] = test system: Candida parapsilosis CGMCC 2.3989
Escherichia coli UB1005 = test system: Escherichia coli UB1005
Escherichia coli K88 = test system: Escherichia coli K88
[19] = test system: Staphylococcus epidermidis ATCC 12228
[20] = test system: Staphylococcus aureus ATCC 29213
[21] = test system: Micrococcus luteus ATCC 10240
[22] = test system: Shigella dysenteriae ATCC 9752
[23] = test system: Staphylococcus aureus ATCC 6538P
[24] = test system: Bacillus subtilis ATCC 6633
[25] = test system: Klebsiella pneumoniae ATCC 10031

| Compound | MIC [3] [µM] | MIC [5] [µM] | MIC [6] [µM] | MIC [7] [µM] | MIC [9] [µM] | MIC [12] [µM] | MIC [13] [µM] | MIC [14] [µM] | MIC [15] [µM] | MIC (Escherichia coli K99) [µM] | MIC [16] [µM] | MIC (Escherichia coli 078) [µM] | MIC [17] [µM] | MIC [18] [µM] | MIC (Escherichia coli UB1005) [µM] | MIC (Escherichia coli K88) [µM] | MIC [19] [µM] | also measured |
| --- | --- | --- | --- | --- | --- | --- | --- | --- | --- | --- | --- | --- | --- | --- | --- | --- | --- | --- |
| CC[C@H](C)[C@H](NC(=O)[C@@H](NC(=O)[C@H](CS)NC(=O)[C@@H](NC(=O)[C@H](CCCN=C(N)N)NC(=O)[C@H](CS)NC(=O)[C@H](CCCN=C(N)N)NC(=O)[C@H](CC(C)C)NC(=O)[C@H](CCC(N)=O)NC(=O)[C@@H](N)C(C)C)C(C)C)C(C)C)C(=O)N[C@@H](CCCN=C(N)N)C(=O)N[C@@H](CCCCN)C(=O)O [VQLRCRVCVIRK] | 43.5 (≈ 64 µg/mL) |  |  |  |  |  |  |  |  |  |  |  |  |  |  |  |  | MIC [1]: 21.7 µM (≈ 32 µg/mL); MIC [2]: 21.7 µM (≈ 32 µg/mL); MIC [4]: 43.5 µM (≈ 64 µg/mL) |
| CC(C)C[C@H](NC(=O)[C@H](CCCCN)NC(=O)[C@@H](N)CCCN=C(N)N)C(=O)N[C@@H](C)C(=O)N[C@@H](Cc1ccccc1)C(=O)N[C@@H](CCCCN)C(=O)N1CCC[C@H]1C(=O)N[C@@H](CC(C)C)C(=O)N[C@@H](CCCCN)C(=O)N[C@@H](CCCCN)C(=O)N[C@@H](Cc1ccccc1)C(=O)N[C@@H](Cc1ccccc1)C(=O)N[C@@H](CO)C(=O)N[C@@H](Cc1c[nH]c2ccccc12)C(=O)N[C@@H](CCCCN)C(=O)N[C@@H](CO)C(=O)O [RKLAFKPLKKFFSWKS] |  |  |  |  |  |  |  |  |  |  |  |  |  |  |  |  |  | MIC [8]: 7.95 µM (≈ 16 µg/mL) |
| CC[C@H](C)[C@H](N)C(=O)NCC(=O)N[C@@H](CCCCN)C(=O)N[C@@H](Cc1ccccc1)C(=O)N[C@@H](CC(C)C)C(=O)N[C@@H](CCCCN)C(=O)N[C@@H](CCCCN)C(=O)N[C@@H](C)C(=O)N[C@@H](CCCCN)C(=O)N[C@@H](CCCCN)C(=O)N[C@@H](Cc1ccccc1)C(=O)NCC(=O)N[C@@H](CCCCN)C(=O)N[C@@H](C)C(=O)N[C@@H](Cc1ccccc1)C(=O)N[C@H](C(=O)N[C@@H](CCCCN)C(N)=O)C(C)C [IGKFLKKAKKFGKAFVK] | > 264 |  |  |  | 2.92 (≈ 5.65 µg/mL) |  |  |  |  |  |  |  |  |  |  |  |  | MIC [10]: ≥ 264 µM; MIC [11]: 11.7 µM (≈ 22.6 µg/mL) |
| CC[C@H](C)[C@H](NC(=O)[C@H](CCCN=C(N)N)NC(=O)[C@H](C)NC(=O)[C@H](C)N)C(=O)N[C@H](C(=O)N[C@@H](CC(C)C)C(=O)N[C@@H](CCCN=C(N)N)C(=O)N[C@@H](Cc1ccc(O)cc1)C(=O)N[C@@H](CCCN=C(N)N)C(=O)N[C@@H](Cc1ccccc1)C(=O)N[C@@H](CCCN=C(N)N)C(N)=O)[C@@H](C)CC [AARIILRYRFR] | 8 (≈ 11.5 µg/mL) |  |  |  | 16 (≈ 22.9 µg/mL) | ≥ 128 | 4 (≈ 5.74 µg/mL) | 4 (≈ 5.74 µg/mL) | 4 (≈ 5.74 µg/mL) | 4 (≈ 5.74 µg/mL) | 16 (≈ 22.9 µg/mL) | 4 (≈ 5.74 µg/mL) | 8 (≈ 11.5 µg/mL) | ≥ 64 | 4 (≈ 5.74 µg/mL) | 4 (≈ 5.74 µg/mL) | 2 (≈ 2.87 µg/mL) |  |
| CC[C@H](C)[C@H](NC(=O)[C@H](CCCCN)NC(=O)[C@H](C)NC(=O)[C@H](C)N)C(=O)N[C@H](C(=O)N[C@@H](CC(C)C)C(=O)N[C@@H](CC(N)=O)C(=O)N1CCC[C@H]1C(=O)N[C@@H](CCCCN)C(=O)N[C@@H](Cc1ccccc1)C(=O)N[C@@H](CCCN=C(N)N)C(=O)N[C@H]1CSSC[C@@H](C(N)=O)NC(=O)[C@H](Cc2ccccc2)NC(=O)[C@H](C)NC(=O)[C@H](C)NC(=O)[C@H](CCCCN)NC1=O)[C@@H](C)CC [AAKIILNPKFRCKAAFC] | 64 (≈ 121 µg/mL) |  |  |  | > 128 | ≥ 128 | ≥ 64 | ≥ 128 | > 128 | ≥ 32 | ≥ 128 | ≥ 128 | 64 (≈ 121 µg/mL) | ≥ 128 | ≥ 64 | ≥ 32 | > 128 | MIC [20]: > 128 µM |
| CC[C@H](C)[C@H](NC(=O)[C@H](CCCN=C(N)N)NC(=O)[C@H](C)NC(=O)[C@H](C)N)C(=O)N[C@H](C(=O)N[C@@H](CC(C)C)C(=O)N[C@@H](CCCN=C(N)N)C(=O)N1CCC[C@H]1C(=O)N[C@@H](CCCN=C(N)N)C(=O)N[C@@H](Cc1ccccc1)C(=O)N[C@@H](CCCN=C(N)N)C(N)=O)[C@@H](C)CC [AARIILRPRFR] | > 128 |  |  |  | > 128 | ≥ 128 | 16 (≈ 21.9 µg/mL) | 16 (≈ 21.9 µg/mL) | > 128 | 16 (≈ 21.9 µg/mL) | ≥ 128 | 8 (≈ 10.9 µg/mL) | 16 (≈ 21.9 µg/mL) | ≥ 128 | 8 (≈ 10.9 µg/mL) | 16 (≈ 21.9 µg/mL) | > 128 | MIC [20]: > 128 µM |
| CC(C)C[C@H](NC(=O)[C@H](Cc1c[nH]c2ccccc12)NC(=O)CNC(=O)[C@H](CC(C)C)NC(=O)[C@@H](N)Cc1ccccc1)C(=O)N[C@@H](Cc1ccccc1)C(=O)N[C@@H](CCCCN)C(=O)N[C@@H](Cc1c[nH]c2ccccc12)C(=O)N[C@@H](C)C(=O)N[C@@H](Cc1c[nH]c2ccccc12)C(=O)N[C@@H](CCCCN)C(N)=O [FLGWLFKWAWK] |  |  |  |  | > 135 |  |  |  |  |  |  |  | 67.5 (≈ 99.9 µg/mL) |  |  |  | 4.25 (≈ 6.3 µg/mL) | MIC [1]: 16.9 µM (≈ 25 µg/mL); MIC [21]: 2.09 µM (≈ 3.1 µg/mL); MIC [22]: 8.44 µM (≈ 12.5 µg/mL); MIC [23]: 4.25 µM (≈ 6.3 µg/mL); MIC [24]: 4.25 µM (≈ 6.3 µg/mL); MIC [25]: 8.44 µM (≈ 12.5 µg/mL) |

More lines, main results first:

| MIC [3] [µM] | MIC [5] [µM] | MIC [6] [µM] | MIC [7] [µM] | MIC [9] [µM] | MIC [12] [µM] | MIC [13] [µM] | MIC [14] [µM] | MIC [15] [µM] | MIC (Escherichia coli K99) [µM] | MIC [16] [µM] | MIC (Escherichia coli 078) [µM] | MIC [17] [µM] | MIC [18] [µM] | MIC (Escherichia coli UB1005) [µM] | MIC (Escherichia coli K88) [µM] | MIC [19] [µM] | Compound | also measured |
| --- | --- | --- | --- | --- | --- | --- | --- | --- | --- | --- | --- | --- | --- | --- | --- | --- | --- | --- |
|  | ≥ 100 | ≥ 100 | ≥ 100 |  |  |  |  |  |  |  |  |  |  |  |  |  | CC(C)C[C@H](NC(=O)[C@H](CCC(=O)O)NC(=O)[C@H](CC(=O)O)NC(=O)[C@H](CCCCN)NC(=O)[C@H](CC(C)C)NC(=O)[C@H](Cc1cnc[nH]1)NC(=O)[C@H](CCC(=O)O)NC(=O)[C@H](Cc1c[nH]c2ccccc12)NC(=O)[C@H](CC(=O)O)NC(=O)[C@H](CCCCN)NC(=O)[C@H](CC(C)C)NC(=O)[C@H](Cc1cnc[nH]1)NC(=O)[C@H](CCC(=O)O)NC(=O)[C@H](Cc1c[nH]c2ccccc12)NC(=O)[C@H](CC(=O)O)NC(=O)[C@H](CCCCN)NC(=O)[C@H](CC(C)C)NC(=O)[C@H](Cc1cnc[nH]1)NC(=O)[C@H](CCC(=O)O)NC(=O)[C@H](Cc1c[nH]c2ccccc12)NC(=O)[C@H](CC(=O)O)NC(=O)[C@@H](N)CCCCN)C(=O)O [KDWEHLKDWEHLKDWEHLKDEL] |  |
|  | 3.54 (≈ 9.61 µg/mL) | 1.77 (≈ 4.81 µg/mL) | 1.77 (≈ 4.81 µg/mL) |  |  |  |  |  |  |  |  |  |  |  |  |  | CC[C@H](C)[C@H](NC(=O)[C@H](CCCCN)NC(=O)[C@H](CCCCN)NC(=O)[C@H](Cc1ccccc1)NC(=O)[C@H](CC(C)C)NC(=O)[C@H](CCCCN)NC(=O)[C@@H](N)CCCCN)C(=O)N[C@@H](CC(C)C)C(=O)N[C@@H](CCCCN)C(=O)N[C@@H](Cc1ccc(O)cc1)C(=O)N[C@@H](CC(C)C)C(=O)N[C@@H](CCCCN)C(=O)N[C@@H](Cc1ccccc1)C(=O)N[C@@H](CC(C)C)C(=O)N[C@@H](Cc1cnc[nH]1)C(=O)N[C@@H](CO)C(=O)N[C@@H](C)C(=O)N[C@@H](CCCCN)C(=O)N[C@@H](CCCCN)C(=O)N[C@@H](CC(=O)O)C(=O)N[C@@H](CCC(=O)O)C(=O)N[C@@H](CC(C)C)C(=O)O [KKLFKKILKYLKFLHSAKKDEL] |  |
|  | 3.54 (≈ 8.95 µg/mL) | 3.54 (≈ 8.95 µg/mL) | 1.77 (≈ 4.47 µg/mL) |  |  |  |  |  |  |  |  |  |  |  |  |  | CC[C@H](C)[C@H](NC(=O)[C@H](CCCCN)NC(=O)[C@H](CCCCN)NC(=O)[C@H](Cc1ccccc1)NC(=O)[C@H](CC(C)C)NC(=O)[C@H](CCCCN)NC(=O)[C@@H](N)CCCCN)C(=O)N[C@@H](CC(C)C)C(=O)N[C@@H](CCCCN)C(=O)N[C@@H](Cc1ccc(O)cc1)C(=O)N[C@@H](CC(C)C)C(=O)N[C@@H](C)C(=O)NCC(=O)N1CCC[C@H]1C(=O)N[C@@H](C)C(=O)N[C@@H](CCCCN)C(=O)N[C@@H](Cc1ccccc1)C(=O)N[C@@H](CC(C)C)C(=O)N[C@@H](Cc1cnc[nH]1)C(=O)N[C@@H](CO)C(=O)N[C@@H](C)C(=O)N[C@@H](CCCCN)C(=O)O [KKLFKKILKYLAGPAKFLHSAK] |  |
